The test system of test [1] is DLD-1 cells. The test is described as follows: Colony formation assay, DLD-1. The note with it: 20 μM, 72 hours, FIG. 12. It is filed as cell-based, human. How it is done:
Colony formation assay—Cells were plated onto 12-well plate (6×10^4 cells/well) and treated with either PBS or myr-NLS at the IC50 concentration for 3 days. Cells were collected and replated in 10-cm plates (at 3 dilutions of 1:10, 1:20 and 1:40). After 7-14 days when visible and yet separated colonies were formed, the cells were fixed with 0.1% acetic acid in PBS, and stained with 0.4% crystal violet in 0.1% acetic acid. Total colonies area was calculated using the ImageJ program.
In addition, a colony formation assay was conducted to further examine the anti-tumor effect of the myr-NLS (SEQ ID NO: 5), myr-NLS2 (SEQ ID NO: 15) and myr-NLS4 (SEQ ID NO: 17) peptides. To this end, DLD-1 cells were treated or untreated for 72 hours with 20 μM of the myr-peptides. Cells were then seeded at the same dilutions in new plates until colonies were formed.

The subject of test [2] is DLD-1 colon cancer tumor xenografts. Kind of test: Colon Tumor Growth in Nude Mice. The class given is in vivo. The note with it: DLD-1 xenografts, 25 μg/100 μl PBS intraperitoneal daily, FIGS. 14A-C. How it is done: Colon Tumor Growth in Nude Mice—Nude CD1-Nu mice (25-30 g) housed in barrier facilities on a 12-h light/dark cycle one week prior to the injection of tumor cells (day zero). On day zero, 5×10^6 DLD-1 cells were implanted subcutaneously just above the right femoral joint. Tumor size was measured every 3-4 days. When the tumors were apparently seen, the animals were divided randomly into three groups of mice [control vehicle treated, myr-NLS1 (SEQ ID NO: 5), myr-NLS4 (SEQ ID NO: 17)]. Treatment was performed by intraperitoneal injection of 25 μg in 100 μl PBS every day. Mice were weighed and tumors size was measured 3 times a week. At the end of the experiment, the mice were sacrificed, and the tumors were dissected and used for further analysis.

The subject of test [3] is MCF7 breast cancer cells. The class given is cell-based, human. The note with it: 72 hours. From the text: (§1) Cell lines—Human breast cancer cell lines SKBR3 [Peles E et al. EMBO J. (1993) 12(3):961-71] and MCF7 [Faigenbloom L et al., Mol Syst Biol. (2015) 11(12):845] and human glioblastoma U87 [Goldberg L et al. Cancer Res. (2006) 66(24):11709-17] cell line, as well as Rat-1 fibroblast cells and H-Ras-transformed Rat-1 cells (EJ cells) [Marom M et al. J Biol Chem. (1995) 270(38):22263-70] and human Panc-1 and MIA PaCa-2 pancreatic cell lines (Rak R et al. Oncoscience. 2014 1(1):39-48; Weisz B et al. Oncogene (1999) 18, 2579±2588) were all grown in Dulbecco's modified Eagle's medium (DMEM; Biological Industries, Beithaemek, Israel). Human colorectal cancer cell lines DLD-1 (ATTC Cat No. CCL-221), HCT-116 (ATTC Cat No. CCL-247) and LNCaP prostate cancer cells were grown in Roswell Park Memorial Institute 1640 (RPMI 1640) medium and McCoy's 5A media, respectively (Sigma-Aldrich). All media were supplemented with antibiotics and 10% heat-inactivated fetal bovine serum (FBS; Gibco). Human breast cell line MCF10A [Bott A et al. Oncotarget. (2017) 8(27):43897-43914] was grown in Dulbeco's Modified Eagle's Medium/Nutrient Mixture F-12 HAM medium (DMEM F-12 HAM; Sigma-Aldrich), supplemented with antibiotics, 5% inactivated horse serum (HS; Invitrogen), 2 mM L-glutamine (Biological Industries, Beithaemek, Israel), 0.1 μg/ml cholera toxin (Sigma-Aldrich), 0.5 μg/ml hydrocortisone (Sigma-Aldrich), 10 μg/ml insulin (Biological Industries, Beithaemek, Israel) and 2 ng/ml EGF (R&D Systems). Cells were incubated at 37° C. in 5% CO2 in air, and the medium was changed every 3-4 days. Cells were passaged in trypsin/disodium ethylenediaminetetraacetic acid (Biological Industries, Beithaemek, Israel) when confluency reached 70%. One day prior to treatment the cells were plated at ~50% confluency in a medium supplemented with 10% FBS or 5% HS, accordingly.
(§2) Methylene blue viability assay—Cells were plated in 96-wells plates at cell densities of 1.5×10^3 (EJ, DLD-1), 3×10^3 (Rat-1, HCT-116, U87), 5×10^3 (SKBR3, MCF7) and 6×10^3 (MCF10A) cells/well. […] Cell number determination was performed as described previously. IC-50 values were calculated using a non-linear regression model (logarithmic inhibitor vs. normalized response-variable slope) with the GraphPad Prism 6 software.

The test system of test [4] is SKBR3 breast cancer cells. It is filed as cell-based, human. The note with it: 72 hours.
Source text: as §1, §2

The subject of test [5] is DLD-1 colon cancer cells. It is filed as cell-based, human. Particulars: 72 hours.
Source text: as §1
(§3) Methylene blue viability assay—Cells were plated in 96-wells plates at cell densities of 1.5×10^3 (EJ, DLD-1), 3×10^3 (Rat-1, HCT-116, U87), 5×10^3 (SKBR3, MCF7) and 6×10^3 (MCF10A) cells/well. On the following day, cells were treated as indicated, and grown for 72 hours. Cell number determination was performed as described previously. IC-50 values were calculated using a non-linear regression model (logarithmic inhibitor vs. normalized response-variable slope) with the GraphPad Prism 6 software.

Test [6] relates to HCT-116 colon cancer cells. The class given is cell-based, human. Particulars: 72 hours.
Source text: as §1, §3

Test [7] has as its system non-cancerous (MCF10A) breast cell line. Kind of test: Methylene blue viability assay, MCF10A. The class given is cell-based, human. The note with it: FIGS. 2A-C.
Source text: as §1, §3

In test [8] the target is T1, ErbB2-nucleolin complexes (Homo sapiens, UniProt P19338).
T1 construct: endogenous in cells; host or cells: SKBR3
T1 sequence (P19338 2-710 limits assumed, one chain of several): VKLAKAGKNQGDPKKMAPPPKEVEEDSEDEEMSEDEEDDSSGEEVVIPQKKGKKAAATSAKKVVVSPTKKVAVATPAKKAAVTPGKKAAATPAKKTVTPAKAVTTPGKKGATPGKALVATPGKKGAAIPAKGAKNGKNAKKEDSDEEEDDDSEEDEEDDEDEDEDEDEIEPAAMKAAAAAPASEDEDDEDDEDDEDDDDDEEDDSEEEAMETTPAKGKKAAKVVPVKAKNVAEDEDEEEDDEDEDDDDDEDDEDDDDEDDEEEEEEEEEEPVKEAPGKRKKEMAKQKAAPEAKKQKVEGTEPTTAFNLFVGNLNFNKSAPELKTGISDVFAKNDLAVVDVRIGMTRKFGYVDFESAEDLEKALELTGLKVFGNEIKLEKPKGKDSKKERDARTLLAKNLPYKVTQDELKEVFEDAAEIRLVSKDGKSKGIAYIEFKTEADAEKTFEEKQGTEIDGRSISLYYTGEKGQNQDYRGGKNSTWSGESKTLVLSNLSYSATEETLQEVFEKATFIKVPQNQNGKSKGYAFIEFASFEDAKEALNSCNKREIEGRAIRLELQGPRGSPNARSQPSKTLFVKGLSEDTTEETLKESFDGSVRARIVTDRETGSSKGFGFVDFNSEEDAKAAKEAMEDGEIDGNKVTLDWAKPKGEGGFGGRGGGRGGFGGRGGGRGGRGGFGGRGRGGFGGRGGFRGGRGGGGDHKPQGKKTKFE
The test is described as follows: Proximity Ligation Assay (PLA). It is filed as cell-based. Particulars: SKBR3 cells, 53 μM, 48 hours, FIG. 3A. The method, then:
Proximity Ligation Assay (PLA)—For proximity ligation assay (PLA) cells were plated in a 16-wells Nunc Lab-Tek glass Chamber Slide System (178599; Thermo Scientific) at a density of 3.5×10^3 cells/well. 2 hours post-seeding the cells were treated with 53 μM of either TAT peptide (SEQ ID NO: 2) or TAT-NLS peptide (SEQ ID NO: 3) and grown for 48 hours. Following fixation, cells were incubated with rabbit anti-ErbB2 and mouse anti-nucleolin antibodies. PLA was performed using the Duolink In-Situ PLA probes: anti-rabbit MINUS and anti-mouse PLUS, and the Duolink In-Situ Detection Reagents Red kit (DUO92005; DUO92001; DUO92008, respectively; Sigma-Aldrich), according to the manufacturer's instructions. Nuclei were stained using the Duolink In-Situ Mounting Medium with DAPI (DUO82040; Sigma-Aldrich). Slides were visualized 24 hours post-staining and images were obtained using an Olympus motorized inverted research microscope Model IX81 (60× magnification). Signal intensity was determined using ImageJ software.

The test system of test [9] is EGFR (ErbB1). Kind of test: Immunoblotting of cell lysates, EGFR phosphorylation. It is filed as cell-based, human. Particulars: SKBR3, DLD-1 and HCT116; 50 μM, 24 hours; FIG. 3B. The method, then: (§4) Lysate preparation and immunoblotting—Cells were seeded at cell densities of 1.5×10^5 (DLD-1), 1.8×10^5 (HCT-116) and 2.5×10^5 (SKBR3) cells/well, treated as indicated and grown for 24 hours. Following, cells were lysed in solubilization buffer; the lysates were cleared by centrifugation and a boiling gel sample buffer was added. Proteins were resolved by SDS-polyacrylamide gel electrophoresis through 10% polyacrylamide gels, and were electrophoretically transferred to nitrocellulose membranes. Membranes were blocked in TBST buffer containing 6% milk, and blotted with primary antibodies. Following, a secondary antibody linked to horseradish peroxidase was added. Immunoreactive bands were detected with the enhanced chemiluminescence reagent Immobilon Crescendo Western HRP substrate (WBLUR0100; Merck Millipore).

Test [10] deals with ErbB2. Kind of test: Immunoblotting of cell lysates, ErbB2 phosphorylation. The class given is cell-based, human. The note with it: SKBR3, DLD-1 and HCT116; 50 μM, 24 hours; FIG. 3B. The method, then:
as §4
On the technique in general: Immunoblotting shows a protein as a band on a membrane.

The star is where a group is joined. Myristoyl = CCCCCCCCCCCCCC(=O)*

In the case of “Myr-RRKSIKKKRALRRFL-OH (Myristoyl-RRKSIKKKRALRRFL-OH; SMILES CCCCCCCCCCCCCC(=O)N[C@@H](CCCNC(=N)N)C(=O)N[C@@H](CCCNC(=N)N)C(=O)N[C@@H](CCCCN)C(=O)N[C@@H](CO)C(=O)N[C@H](C(=O)N[C@@H](CCCCN)C(=O)N[C@@H](CCCCN)C(=O)N[C@@H](CCCCN)C(=O)N[C@@H](CCCNC(=N)N)C(=O)N[C@@H](C)C(=O)N[C@@H](CC(C)C)C(=O)N[C@@H](CCCNC(=N)N)C(=O)N[C@@H](CCCNC(=N)N)C(=O)N[C@@H](Cc1ccccc1)C(=O)N[C@@H](CC(C)C)C(=O)O)[C@@H](C)CC) [myr-NLS4]”, the “colony formation (total colonies area)” value in test [1] was “fewer and smaller colonies”. In addition, the “tumor growth (tumor size, tumor weight)” value in test [2] is reported as “significantly reduced tumor cell growth”.

GRKKRRQRRRPPQRRRHIVRKRTLRRLL [TAT-NLS]: in test [3] (FIGS. 2A-C), the “cell growth of MCF7 breast cancer cells” value is reported as “inhibited cell growth”. Besides, the IC50 on cell viability in test [3] (MCF7, FIG. 2C) was determined as 49.5 µM; in test [4] (SKBR, FIG. 2C) it was 83.1 µM; in test [5] (DLD-1, FIG. 2C), 40.2 µM; in [6] (HCT116, FIG. 2C), 27.7 µM. The “cell growth of SKBR3 breast cancer cells” value in test [4] (FIGS. 2A-C) is “inhibited cell growth”. Moreover, in [5] (FIGS. 2A-C), the “cell growth of DLD-1 colon cancer cells” value is recorded as “inhibited cell growth”. The “cell growth of HCT-116 colon cancer cells” value in [6] (FIGS. 2A-C) is listed as “inhibited cell growth”. In addition, the “viability of the non-cancerous cells MCF10” value in [7] is reported as “not affecting viability”. Moreover, the “interaction between the ErbB2 receptor and nucleolin (PLA)” value is listed as “reduced the interaction” in test [8] and “disrupts the ErbB-nucleolin interaction” in [8] (listed as TAL-NLS). For the same substance, the ErbB1 phosphorylation entry in [9] is reported as “inhibited”. For the same substance, in test [10], the ErbB2 phosphorylation entry is listed as “inhibited”.

For the origin of these results see US20260200982A1, “HER RECEPTOR DERIVED PEPTIDES AND METHODS OF USE THEREOF” (Ramot at Tel-Aviv University Ltd., priority 2022, published 2026).
